Measured values published in patent US20070275877A1, “Methods for Treating or Ameliorating Ghrelin-Associated Diseases and Disorders” (AMYLIN PHARMACEUTICALS, INC., priority 2003, published 2007).
No end group written: not given here.

Columns and labels:
[1] = test system: ghrelin levels; test: Crossover study of pramlintide in humans: ghrelin levels (Example 6); type: in vivo, human; conditions: single SC dose of pramlintide 30 μg, n=15, FIG. 6
Method: FIG. 6 depicts a graph of the effect of an amylin analog on ghrelin levels in humans.
(§1) Ghrelin levels were measured in a single-center, randomized, double-blind, placebo-controlled, two-period, crossover study was designed to examine the acute effects of pramlintide, an amylin analog, in humans. The study consisted of two treatment periods (Period 1/Visit 2 and Period 2/Visit 3) with at least 72 h between each treatment period. After successful completion of all Screening procedures (including informed consent), subjects (n=15) were randomly assigned to one of two treatment sequences (pramlintide: placebo or placebo: pramlintide). Subjects were instructed to fast from 2200 h on the evening before both treatment periods until the start of the test (the next morning).
On the mornings of Period 1 and Period 2, an intravenous cannula was placed in an antecubital vein for blood sampling (t=−1 h). Vital signs and weight were measured at this time. During each treatment period, subjects received study medication (pramlintide or placebo) immediately followed by a standardized, liquid preload meal, which was to be consumed within 3 min. Subjects received a single SC dose of pramlintide 30 μg or placebo. […] The buffet meal included a selection of carbohydrate-rich foods in quantities in excess of what subjects were expected to eat. […]

[2] = Crossover study of pramlintide in humans: ad libitum buffet meal intake (Example 6); type: in vivo, human; conditions: single SC dose of pramlintide 30 μg
Method: as §1
On the mornings of Period 1 and Period 2, an intravenous cannula was placed in an antecubital vein for blood sampling (t=−1 h). Vital signs and weight were measured at this time. During each treatment period, subjects received study medication (pramlintide or placebo) immediately followed by a standardized, liquid preload meal, which was to be consumed within 3 min. Subjects received a single SC dose of pramlintide 30 μg or placebo. One hour later (t=1 h), subjects consumed an ad libitum buffet meal, which was offered for 45 min. The buffet meal included a selection of carbohydrate-rich foods in quantities in excess of what subjects were expected to eat. Venous blood samples were collected over a 5.5-h period (t=−0.5 h to 5 h) for the measurement of postprandial metabolic and hormonal responses. Procedures for Period 2 were exactly as those described for Period 1, only the alternate treatment was given.

[3] = test system: active ghrelin; test: Amylin receptor antagonist s.c., plasma ghrelin in non-fasted rats given pentagastrin (Example 4, FIG. 4A); type: in vivo; conditions: AC187 3 mg/rat s.c. at -5 min, pentagastrin 125 μg/kg s.c. at 0 min
Method: (§2) FIGS. 4A and 4B depict graphs of the effects of an amylin receptor antagonist on ghrelin levels in an animal model.
(§3) The following methods apply to Examples 1-4 as indicated. Male Harlan Sprague Dawley® (HSD) rats were housed at 22.8±0.8° C. in a 12:12 hour light:dark cycle. All experiments were performed in the light cycle. Animals were fasted for approximately 20 hours before experimentation (examples 1, 2 and 3) or fed ad libidum (Example 4). All animals were given free access to water until the start of the experiment. The animals' tails were anesthetized with 20% benzocaine (Hurricaine, Beutlich Pharmaceutical, Waukegan, Ill.), and blood samples were collected from the tail vein. Total and active ghrelin concentrations were measured using Linco RIA kits GHRA-89HK and GHRA-88HK, respectively.
These experiments were conducted to determine whether the amylin receptor antagonist AC187 blocked an effect of endogenous amylin on plasma ghrelin levels in non-fasted rats. Baseline blood samples for ghrelin to be assayed were taken at t=−10 min. AC187 (lot #AR741-72, Amylin Pharmaceuticals), at a dose of 3 mg/rat in 300 μl of saline, or saline vehicle alone, was given by subcutaneous injection (n=6, 8 respectively) at t=−5 min. Animals additionally received a subcutaneous injection of pentagastrin (Sigma, Lot#050K1525) in the amount of 125 μg/kg body mass at time=0 min. […]

[4] = test system: active ghrelin; test: Amylin receptor antagonist i.v., plasma ghrelin in fed rats (Example 4, FIG. 4B); type: in vivo; conditions: AC187 3 mg/rat i.v.; five minutes after administration; fed animals; saline controls 1.4±6.4% decrease, P<0.03
Method: as §2, §3
In a second, related experiment, baseline blood samples for ghrelin to be assayed were taken at t=0 minutes. AC187 (lot#AR2237-18B, Amylin Pharmaceuticals, Inc.), at a dose of 3 mg/rat in 300 μl of saline or saline vehicle alone, was given by intravenous injection in the tail vein at t=0. Plasma samples were collected at time 0, 5, and 15 minutes. Five minutes after administration of AC187 in fed animals, active ghrelin concentrations increased by 16.3±4.0%, as compared to a 1.4±6.4% decrease in saline controls (P<0.03), see FIG. 4B.

[5] = treated test animals; e.g., provoking marked hyperlactemia followed by hyperglycemia; cited from earlier work
[6] = cited from earlier work
[7] = test system: total plasma ghrelin; test: Effect of rat amylin on ghrelin levels with and without pentagastrin in fasted rats (Example 2); type: in vivo
Method: FIGS. 2A and 2B depict graphs of the effect of rat amylin on ghrelin levels in an animal model in the presence and absence of pentagastrin.
as §3
These experiments were conducted to examine whether exogenous amylin inhibits ghrelin secretion independent of pentagastrin stimulation. Fasted rats were given either a subcutaneous injection of saline or of 30 μg/kg rat amylin (FIG. 2A) or a subcutaneous injection of either saline or 125 μg/kg pentagastrin (Sigma, Lot#050K1525) (FIG. 2B) at time=0 min. […]

[8] = test system: total plasma ghrelin; test: Dose-response effects of amylin on ghrelin levels in fasted rats (Example 3); type: in vivo, rat
Method: FIGS. 3A and 3B depict graphs of dose-response effects of rat amylin on ghrelin levels in an animal model.
as §3
These experiments were conducted to identify dose-response effects of amylin on ghrelin levels in fasted rats. Rat amylin (lot #AR2081-42A, Amylin Pharmaceuticals) in 100 μl saline was given by subcutaneous injections at doses: 0, 1, 10, 30 and 100 μg/kg (n=5, 4, 5, 5, 4 respectively) at time=0 min. Blood plasma samples were collected at time=0, 10, 20, 30, 60, 90 and 120 min after amylin injection. […] Pairwise statistical analyses were performed using Student's t-test (Instat v2.0, GraphPad Software Inc, San Diego). Results are reported as mean±standard error of the mean, and P<0.05 is used as the level of significance.

[9] = test system: active (acylated) ghrelin; test: Effect of rat amylin on ghrelin levels in pentagastrin-treated fasted rats (Example 1); type: in vivo; conditions: 10 μg rat amylin s.c. 20 min after 125 μg/kg pentagastrin s.c.
Method: FIG. 1 depicts a graph of the effect of exogenously administered rat amylin on endogenous ghrelin levels in an animal model. 125 μg pentagastrin (PG) was administered at t=0 and 10 μg amylin was administered at t=20 (dotted lines).
as §3
HSD rats were subjected to periodic blood sampling from the topically anesthetized tail and ghrelin levels were assayed. At t=0, rats (n=6) were injected s.c. with 125 μg/kg pentagastrin (Sigma) to stimulate gastric acid secretion (PG=0 min in FIG. 1), and 20 min later were injected subcutaneously (s.c.) with 10 μg rat amylin. The blood samples were analyzed for total and active (acylated) ghrelin (Linco).

[10] = test system: active ghrelin; test: Amylin effect on ghrelin in area postrema-lesioned and sham operated rats (Example 5); type: in vivo, rat
Method: FIG. 5 depicts a graph of the effect of the area postrema on amylin's effect on ghrelin secretion.
In this experiment, fasted, Sprague-Dawley® rats with localized lesions of the area postrema (AP) made by vacuum aspiration 3 weeks before the experiments and sham operated rats (sham) were injected s.c. with amylin (30 μg/kg) or saline (n=4, 4 respectively). At t=0, 10, 20, 30, 60, 90 and 120 minutes after the s.c. injection, total ghrelin concentrations were measured and reports as % of the baseline.
Twenty minutes after a 30 μg/kg subcutaneous amylin injection in Sham rats, active ghrelin concentration decreased by 31.3±3.3%, while active ghrelin concentrations in saline controls increased by 23.5±22.1% (P<0.05).

## CC[C@H](C)[C@H](NC(=O)[C@@H]1CCCN1C(=O)CNC(=O)[C@H](Cc1ccccc1)NC(=O)[C@H](CC(N)=O)NC(=O)[C@H](CC(N)=O)NC(=O)[C@H](CO)NC(=O)[C@H](CO)NC(=O)[C@H](Cc1c[nH]cn1)NC(=O)[C@@H](NC(=O)[C@H](CC(C)C)NC(=O)[C@H](Cc1ccccc1)NC(=O)[C@H](CC(N)=O)NC(=O)[C@H](C)NC(=O)[C@H](CC(C)C)NC(=O)[C@H](CCCNC(=N)N)NC(=O)[C@H](CCC(N)=O)NC(=O)[C@@H](NC(=O)[C@H](C)NC(=O)[C@@H]1CSSC[C@H](NC(=O)[C@@H](N)CCCCN)C(=O)N[C@@H](CC(N)=O)C(=O)N[C@@H]([C@@H](C)O)C(=O)N[C@@H](C)C(=O)N[C@@H]([C@@H](C)O)C(=O)N1)[C@@H](C)O)C(C)C)C(=O)N[C@@H](CC(C)C)C(=O)N1CCC[C@H]1C(=O)N1CCC[C@H]1C(=O)N[C@H](C(=O)N[C@@H](CC(N)=O)C(=O)N[C@H](C(=O)NCC(=O)N[C@@H](CO)C(=O)N[C@@H](CC(N)=O)C(=O)N[C@H](C(=O)N[C@@H](Cc1ccc(O)cc1)C(N)=O)[C@@H](C)O)C(C)C)[C@@H](C)O [pramlintide, ^25,28,29Pro-h-amylin]
[1]
  ghrelin levels following an ad libitum buffet meal compared to placebo: further reduced
[2]
  duration of the meal time compared to placebo: reduced
  fat, carbohydrate, and protein intake compared to placebo: proportionate reductions
  total caloric intake of the buffet meal compared to placebo: reduced

## Ac ^30Asn, ^32Tyr-sCT[8-32] [AC187]
[3]
  active ghrelin concentrations compared to saline injected controls: higher
[4]
  increase of active ghrelin concentrations: 16.3±4.0%

## ^18Arg^25,28Pro-h-amylin (KCNTATCATQRLANFLVRSSNNFGPILPSTNVGSNTY)
[5]
  amylin activity in vivo: show amylin activity in vivo
[6]
  solubility characteristics compared to human amylin: more desirable

## ^25Pro^26Val^28,29 Pro-h-amylin (KCNTATCATQRLANFLVHSSNNFGPVLPPTNVGSNTY)
[6]
  solubility characteristics compared to human amylin: more desirable

## ^28Pro-h-amylin (KCNTATCATQRLANFLVHSSNNFGAILPSTNVGSNTY)
[5]
  amylin activity in vivo: show amylin activity in vivo

## des-^1Lys-h-amylin (CNTATCATQRLANFLVHSSNNFGAILSSTNVGSNTY; ends and bridges not checked; cysteine pairing not given here; UniProt P10997 35-70, looked up, fragment)
[5]
  amylin activity in vivo: show amylin activity in vivo

## des-^1Lys^18Arg^25,28Pro-h-amylin
[5]
  amylin activity in vivo: show amylin activity in vivo

## rat amylin (KCNTATCATQRLANFLVRSSNNLGPVLPPTNVGSNTY; not fully specified; ends and bridges not checked; UniProt P12969 38-74, looked up) [rat amylin peptide hormone (AC0128, Amylin Pharmaceuticals)]
[7]; 30 μg/kg rat amylin s.c. without pentagastrin
  plasma ghrelin compared to the control, amylin alone: reduced
[7]; 30 μg/kg rat amylin s.c., FIGS. 2A and 2B
  total plasma ghrelin compared to the saline control: reduction in total plasma ghrelin
[8]; amylin dose of 1 μg/kg s.c.
  inhibition of ghrelin at lowest dose: trend to inhibit ghrelin
[8]; amylin doses of 10 μg/kg and above s.c., P<0.05 level
  reduction of ghrelin, significance: statistically significant
[8]; rat amylin s.c. 0, 1, 10, 30 and 100 μg/kg, fasted rats, FIG. 3A
  total plasma ghrelin concentrations, dose-response: dose-dependent reduction
[8]; rat amylin s.c. 1-100 μg/kg, fasted rats
  time of ghrelin concentration nadirs after amylin injection: 60 to 90 min
[9]
  time within which active ghrelin was reduced by 50%: ≤ 1 h
[9]; FIG. 1
  reduction of active ghrelin: 50%
[10]; AP-lesioned rats, 30 μg/kg s.c. amylin, P=0.24
  difference in ghrelin concentration, amylin versus saline: no significant difference
[10]; AP-lesioned rats, 30 μg/kg s.c. amylin, saline +49.6±21.0%, P=0.24
  increase of ghrelin concentration: 13.7±17.6%
[10]; Sham rats, twenty minutes after 30 μg/kg s.c. amylin, saline controls increased by 23.5±22.1%, P<0.05
  decrease of active ghrelin concentration: 31.3±3.3%
